# Patent US20230121313A1 (priority 2019, published 2023)
# Tested on: subjects with MDD at imminent risk for suicide
# Settings: 84 mg
# [1] = human, in vivo, other: intranasal
# Source text: Among 68 randomized subjects, 66 were included in the safety analysis set (defined as receiving at least one dose of study medication in the double-blind phase). […] All safety subjects (N=66) were included in the intent-to-treat (ITT) analysis set (defined as receiving at least one dose of study medication during the double-blind phase and having both the baseline and the Day 1, 4-hour postdose evaluation for the MADRS total score). Forty-nine subjects were included in the safety (FU) analysis set (defined as all subjects who have at least 1 visit during the follow up phase).
smiles,measurement,setting,value
"CN[C@]1(c2ccccc2Cl)CCCCC1=O [esketamine, (S)-2-(2-chlorophenyl)-2-(methylamino)cyclohexanone]","Serious TEAE: Agitation, subjects (%)","double-blind phase, N = 35",2.9%
same,"Serious TEAE: Depressive symptom, subjects (%)","double-blind phase, N = 35",2.9%
same,"Serious TEAE: Psychiatric disorders, subjects (%)","double-blind phase, N = 35",11.4%
same,"Serious TEAE: Suicidal ideation, subjects (%)","double-blind phase, N = 35",5.7%
same,Subjects with 1 or more serious TEAE (%),"double-blind phase, N = 35",11.4%
same,Subjects with TEAE leading to drug withdrawn (%),"double-blind phase, N = 35",14.3%
same,"TEAE Acne, subjects (%)","double-blind phase, N = 35",(5.7%)
same,"TEAE Agitation, subjects (%)","double-blind phase, N = 35",(8.6%)
same,"TEAE Anxiety, subjects (%)","double-blind phase, N = 35",(17.1%)
same,"TEAE Blood pressure increased, subjects (%)","double-blind phase, N = 35",(5.7%)
same,"TEAE Diarrhea, subjects (%)","double-blind phase, N = 35",(8.6%)
same,"TEAE Diplopia, subjects (%)","double-blind phase, N = 35",(5.7%)
same,"TEAE Dissociation, subjects (%)","double-blind phase, N = 35",(31.4%)
same,"TEAE Dizziness postural, subjects (%)","double-blind phase, N = 35",(5.7%)
same,"TEAE Dizziness, subjects (%)","double-blind phase, N = 35",(34.3%)
same,"TEAE Dry mouth, subjects (%)","double-blind phase, N = 35",(8.6%)
same,"TEAE Dysgeusia, subjects (%)","double-blind phase, N = 35",(31.4%)
same,"TEAE Ear and labyrinth disorders, subjects (%)","double-blind phase, N = 35",(25.7%)
same,"TEAE Euphoric mood, subjects (%)","double-blind phase, N = 35",(11.4%)
same,"TEAE Eye disorders, subjects (%)","double-blind phase, N = 35",(20.0%)
same,"TEAE Fatigue, subjects (%)","double-blind phase, N = 35",(5.7%)
same,"TEAE Feeling abnormal, subjects (%)","double-blind phase, N = 35",(8.6%)
same,"TEAE Feeling cold, subjects (%)","double-blind phase, N = 35",(5.7%)
same,"TEAE Flatulence, subjects (%)","double-blind phase, N = 35",(2.9%)
same,"TEAE Gastrointestinal disorders, subjects (%)","double-blind phase, N = 35",(54.3%)
same,"TEAE General disorders and administration site conditions, subjects (%)","double-blind phase, N = 35",(28.6%)
same,"TEAE Headache, subjects (%)","double-blind phase, N = 35",(31.4%)
same,"TEAE Hyperacusis, subjects (%)","double-blind phase, N = 35",(5.7%)
same,"TEAE Hyperhidrosis, subjects (%)","double-blind phase, N = 35",(5.7%)
same,"TEAE Hypoesthesia oral, subjects (%)","double-blind phase, N = 35",(5.7%)
same,"TEAE Hypoesthesia, subjects (%)","double-blind phase, N = 35",(8.6%)
same,"TEAE Infections and infestations, subjects (%)","double-blind phase, N = 35",(2.9%)
same,"TEAE Insomnia, subjects (%)","double-blind phase, N = 35",(8.6%)
same,"TEAE Investigations, subjects (%)","double-blind phase, N = 35",(14.3%)
same,"TEAE Nasal congestion, subjects (%)","double-blind phase, N = 35",(2.9%)
same,"TEAE Nasal discomfort, subjects (%)","double-blind phase, N = 35",(8.6%)
same,"TEAE Nausea, subjects (%)","double-blind phase, N = 35",(37.1%)
same,"TEAE Nervous system disorders, subjects (%)","double-blind phase, N = 35",(71.4%)
same,"TEAE Oropharyngeal pain, subjects (%)","double-blind phase, N = 35",(5.7%)
same,"TEAE Paresthesia oral, subjects (%)","double-blind phase, N = 35",(5.7%)
same,"TEAE Paresthesia, subjects (%)","double-blind phase, N = 35",(17.1%)
same,"TEAE Pharyngeal hypoesthesia, subjects (%)","double-blind phase, N = 35",(5.7%)
same,"TEAE Psychiatric disorders, subjects (%)","double-blind phase, N = 35",(57.1%)
same,"TEAE Rash, subjects (%)","double-blind phase, N = 35",(2.9%)
same,"TEAE Renal and urinary disorders, subjects (%)","double-blind phase, N = 35",(2.9%)
same,"TEAE Respiratory, thoracic and mediastinal disorders, subjects (%)","double-blind phase, N = 35",(25.7%)
same,"TEAE Sedation, subjects (%)","double-blind phase, N = 35",(17.1%)
same,"TEAE Skin and subcutaneous tissue disorders, subjects (%)","double-blind phase, N = 35",(14.3%)
same,"TEAE Somnolence, subjects (%)","double-blind phase, N = 35",(11.4%)
same,"TEAE Suicidal ideation, subjects (%)","double-blind phase, N = 35",(5.7%)
same,"TEAE Throat irritation, subjects (%)","double-blind phase, N = 35",(8.6%)
same,"TEAE Tinnitus, subjects (%)","double-blind phase, N = 35",(5.7%)
same,"TEAE Vertigo, subjects (%)","double-blind phase, N = 35",(11.4%)
same,"TEAE Vision blurred, subjects (%)","double-blind phase, N = 35",(8.6%)
same,"TEAE Vomiting, subjects (%)","double-blind phase, N = 35",(20.0%)
same,"TEAE Weight increased, subjects (%)","double-blind phase, N = 35",(5.7%)
same,"TEAE leading to study discontinuation: Aggression, subjects (%)","double-blind phase, N = 35",2.9%
same,"TEAE leading to study discontinuation: Agitation, subjects (%)","double-blind phase, N = 35",2.9%
same,"TEAE leading to study discontinuation: Cardiac disorders, subjects (%)","double-blind phase, N = 35",2.9%
same,"TEAE leading to study discontinuation: Dizziness, subjects (%)","double-blind phase, N = 35",2.9%
same,"TEAE leading to study discontinuation: Dysgeusia, subjects (%)","double-blind phase, N = 35",2.9%
same,"TEAE leading to study discontinuation: Dyspnea, subjects (%)","double-blind phase, N = 35",2.9%
same,"TEAE leading to study discontinuation: Gastrointestinal disorders, subjects (%)","double-blind phase, N = 35",2.9%
same,"TEAE leading to study discontinuation: Nausea, subjects (%)","double-blind phase, N = 35",2.9%
same,"TEAE leading to study discontinuation: Nervous system disorders, subjects (%)","double-blind phase, N = 35",5.7%
same,"TEAE leading to study discontinuation: Psychiatric disorders, subjects (%)","double-blind phase, N = 35",5.7%
same,"TEAE leading to study discontinuation: Respiratory, thoracic and mediastinal disorders, subjects (%)","double-blind phase, N = 35",2.9%
same,"TEAE leading to study discontinuation: Ventricular extrasystoles, subjects (%)","double-blind phase, N = 35",2.9%
same,Total no. subjects with TEAE leading to study discontinuation (%),"double-blind phase, N = 35",14.3%
same,Subjects with possibly related TEAE (%),"double-blind phase, N = 35, possible, probable, very likely",82.9%
same,"AE Abdominal pain, subjects (%)","follow up phase, N = 27",(3.7%)
same,"AE Abdominal tenderness, subjects (%)","follow up phase, N = 27",(3.7%)
same,"AE Back pain, subjects (%)","follow up phase, N = 27",(3.7%)
same,"AE Cogwheel rigidity, subjects (%)","follow up phase, N = 27",(3.7%)
same,"AE Contusion, subjects (%)","follow up phase, N = 27",(3.7%)
same,"AE Depression, subjects (%)","follow up phase, N = 27",(3.7%)
same,"AE Diarrhea, subjects (%)","follow up phase, N = 27",(3.7%)
same,"AE Dizziness, subjects (%)","follow up phase, N = 27",(3.7%)
same,"AE Dry mouth, subjects (%)","follow up phase, N = 27",(7.4%)
same,"AE Dysgeusia, subjects (%)","follow up phase, N = 27",(3.7%)
same,"AE Ear infection, subjects (%)","follow up phase, N = 27",(3.7%)
same,"AE Epistaxis, subjects (%)","follow up phase, N = 27",(3.7%)
same,"AE Flank pain, subjects (%)","follow up phase, N = 27",(3.7%)
same,"AE Gastrointestinal disorders, subjects (%)","follow up phase, N = 27",(22.2%)
same,"AE Headache, subjects (%)","follow up phase, N = 27",(7.4%)
same,"AE Infections and infestations, subjects (%)","follow up phase, N = 27",(11.1%)
same,"AE Injury, poisoning and procedural complications, subjects (%)","follow up phase, N = 27",(7.4%)
same,"AE Insomnia, subjects (%)","follow up phase, N = 27",(11.1%)
same,"AE Intentional self-injury, subjects (%)","follow up phase, N = 27",(3.7%)
same,"AE Loss of consciousness, subjects (%)","follow up phase, N = 27",(3.7%)
same,"AE Migraine, subjects (%)","follow up phase, N = 27",(3.7%)
same,"AE Musculoskeletal and connective tissue disorders, subjects (%)","follow up phase, N = 27",(7.4%)
same,"AE Musculoskeletal chest pain, subjects (%)","follow up phase, N = 27",(3.7%)
same,"AE Musculoskeletal pain, subjects (%)","follow up phase, N = 27",(3.7%)
same,"AE Nasal congestion, subjects (%)","follow up phase, N = 27",(3.7%)
same,"AE Nasopharyngitis, subjects (%)","follow up phase, N = 27",(3.7%)
same,"AE Neck pain, subjects (%)","follow up phase, N = 27",(3.7%)
same,"AE Nervous system disorders, subjects (%)","follow up phase, N = 27",(22.2%)
same,"AE Night sweats, subjects (%)","follow up phase, N = 27",(3.7%)
same,"AE Pelvic pain, subjects (%)","follow up phase, N = 27",(3.7%)
same,"AE Pharyngitis, subjects (%)","follow up phase, N = 27",(7.4%)
same,"AE Psychiatric disorders, subjects (%)","follow up phase, N = 27",(18.5%)
same,"AE Reproductive system and breast disorders, subjects (%)","follow up phase, N = 27",(3.7%)
same,"AE Respiratory, thoracic and mediastinal disorders, subjects (%)","follow up phase, N = 27",(7.4%)
same,"AE Restlessness, subjects (%)","follow up phase, N = 27",(3.7%)
same,"AE Road traffic accident, subjects (%)","follow up phase, N = 27",(3.7%)
same,"AE Sedation, subjects (%)","follow up phase, N = 27",(3.7%)
same,"AE Skin and subcutaneous tissue disorders, subjects (%)","follow up phase, N = 27",(3.7%)
same,"AE Suicidal ideation, subjects (%)","follow up phase, N = 27",(3.7%)
same,"AE Tremor, subjects (%)","follow up phase, N = 27",(7.4%)
same,"AE Upper respiratory tract infection, subjects (%)","follow up phase, N = 27",(3.7%)
same,"AE Vomiting, subjects (%)","follow up phase, N = 27",(3.7%)
same,"AE Vulvovaginal mycotic infection, subjects (%)","follow up phase, N = 27",(3.7%)
same,"Serious AE: Psychiatric disorders, subjects (%)","follow up phase, N = 27",3.7%
same,"Serious AE: Suicidal ideation, subjects (%)","follow up phase, N = 27",3.7%
same,Total no. subjects with a serious adverse event (%),"follow up phase, N = 27",3.7%
same,Total no. subjects with adverse events (%),"follow up phase, N = 27",(48.1%)
same,Subjects who discontinued from the double-blind phase due to adverse events,[1],5 subjects
same,Subjects with at least one TEAE,[1],94.3%
same,Subjects with at least one adverse event,[1],48.1%
same,"TEAE dissociation, % of subjects",[1],31.4%
same,"TEAE dizziness, % of subjects",[1],34.3%
same,"TEAE dysgeusia, % of subjects",[1],31.4%
same,"TEAE headache, % of subjects",[1],31.4%
same,"TEAE nausea, % of subjects",[1],37.1%
same,"TEAE vomiting, % of subjects",[1],20.0%
same,Subjects with a serious adverse event,"human, in vivo, other: intranasal, 56 day",1
